# Data from patent publication US5994342A, “3-(substituted methyl)-4-oxa-1-azabicyclo[3.2.0]heptan-7-one derivatives useful as antitumor agents” (priority 1994, dated 1999).
# Where a name gives a salt, the structure may show the parent alone.
# Key:
# KB cells = assay: In vitro KB cell cytotoxicity assay (crystal violet); format: cell-based; details: Homo sapiens, 72 h, 3 days culture, read-out: KB Cell Cytotoxicity TD50
# Procedure, shortened: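 Cells seeded at 3×10^4 cells/ml in Eagle's MEM with 10% calf serum, cultured one day, then exposed to compound for three days at 37° C, 5% CO2. Glutaraldehyde-fixed cells stained with 0.05% crystal violet, eluted and read at OD540; TD50 from linear regression of log-logit plot of growth inhibition.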
# Sarcoma 180 = assay: In vivo antitumor activity against Sarcoma 180; set-up: species or system male ICR mice; details: i.p., days 1, 5 and 9; for inhibition in vivo at 12.5 mg/kg / inhibition in vivo at 25 mg/kg / inhibition in vivo at 50 mg/kg / inhibition in vivo at 100 mg/kg: Mus musculus, Sarcoma-180, ip, 288 h, tumor s.c., tumor weight day 12, read-out: % Inhibition of tumor growth
# Method: In Vivo Antitumor Activity Against Sarcoma 180
# The compounds of general formula (I) were tested in vivo against Sarcoma 180 xenografted tumor to mice as illustrated herein after.
# Sarcoma 180, 5×10^6 cells were inoculated by S.C. to male ICR mice (6 week old) on day 0. Drugs were administered on days 1, 5 and 9. Mice were killed and tumor weight was measured on day 12 after transplantation. The percentage inhibition of tumor growth was calculated from the mean tumor weight of the treated group compared with that of the control group. Number of mice used in each group was between 6 to 7.
SMILES,IC50 (KB cells),Mortality in 12 days (Sarcoma 180; 12.5 mg/kg/day),Mortality in 12 days (Sarcoma 180; 25 mg/kg/day),Mortality in 12 days (Sarcoma 180; 50 mg/kg/day),inhibition in vivo at 12.5 mg/kg (Sarcoma 180; 12.5 mg/kg/day),inhibition in vivo at 25 mg/kg (Sarcoma 180; 25 mg/kg/day),inhibition in vivo at 50 mg/kg (Sarcoma 180; 50 mg/kg/day),Mortality in 12 days (Sarcoma 180; 100 mg/kg/day),inhibition in vivo at 100 mg/kg (Sarcoma 180; 100 mg/kg/day)
"CC(C)[C@H](N)C(=O)N[C@H](C(=O)OCC1CN2C(=O)CC2O1)C(C)C (stereo partly drawn) [Example 56B, (3RS,5SR)-3-[L-2-N-(L-2-Amino-3-methylbutyryl)amino-3-methylbutyryl]oxymethyl-4-oxa-1-azabicyclo-[3.2.0]heptan-7-one hydrochloride]",0.283 µg/mL,0/6,0/6,0/6,48.9%,69.2%,73.2%,,
"CC(C)[C@H](NC(=O)[C@@H](N)CC(=O)O)C(=O)OCC1CN2C(=O)CC2O1 (stereo partly drawn) [Example 57B, (3RS,5RS)-3-N-[L-2-N-(L-2-Amino-3-carboxypropanoyl)amino-3-methylbutyryl]oxymethyl-4-oxa-1-azabicyclo[3.2.0]heptan-7-one]",1.54 µg/mL,0/6,0/6,1/6,40.9%,58.1%,83.1%,,
"CC(C)[C@@H](N)C(=O)N[C@@H](C(=O)OCC1CN2C(=O)CC2O1)C(C)C (stereo partly drawn) [Example 62B, (3RS,5SR)-3-[D-2-N-(D-2-Amino-3-methylbutyryl)amino-3-methylbutyryl]oxymethyl-4-oxa-1-azabicyclo[3.2.0]heptan-7-one hydrochloride]",0.381 µg/mL,,,,,,,0/6,42.1%
"N[C@@H](Cc1ccccc1)C(=O)NCC1CN2C(=O)CC2O1 (stereo partly drawn) [Example 63B, (3RS,5RS)-3-N-(L-2-Amino-3-phenylpropanoyl)aminomethyl-4-oxa-1-azabicyclo[3.2.0]heptan-7-one hydrochloride]",0.573 µg/mL,,,0/6,,,50.3%,0/6,57.6%
"N[C@@H](CC(=O)O)C(=O)NCC1CN2C(=O)CC2O1 (stereo partly drawn) [Example 67B, (3RS,5RS)-3-N-(L-2-Amino-3-carboxypropanoyl)aminomethyl-4-oxa-1-azabicyclo[3.2.0]heptan-7-one]",6.04 µg/mL,,,0/6,,,41.1%,0/6,65.9%
"N[C@H](CCC(=O)NCC1CN2C(=O)CC2O1)C(=O)O (stereo partly drawn) [Example 69B, (3RS,5RS)-3-N-(D-4-Amino-4-carboxybutyryl)aminomethyl-4-oxa-1-azabicyclo[3.2.0]heptan-7-one]",2.47 µg/mL,,,,,,,0/6,37.8%
"CC(C)[C@H](N)C(=O)N[C@@H](COCc1ccccc1)C(=O)OCC1CN2C(=O)CC2O1 (stereo partly drawn) [Example 74B, (3RS,5SR)-3-[L-2-N-(L-2-N-Amino-3-methylbutyryl)amino-3-benzyloxypropanoyloxymethyl]-4-oxa-1-azabicyclo[3.2.0]heptan-7-one hydrochloride]",0.669 µg/mL,,,0/6,,,49.9%,1/6,84.1%
"CC(=O)N[C@@H](CO)C(=O)OCC1CN2C(=O)CC2O1 (stereo partly drawn) [Example 75A, (3RS,5SR)-3-(L-2-Acetamido-3-hydroxypropanoyl)oxymethyl-4-oxa-1-azabicyclo[3.20]heptan-7-one]",1.98 µg/mL,0/6,0/6,,42.8%,61.9%,,,
"O=C(NCCCC[C@H](NC(=O)OCc1ccccc1)C(=O)OCC1CN2C(=O)CC2O1)OCc1ccccc1 (stereo partly drawn) [Example 77A, (3RS,5SR)-3-(L-2,6-N-Dibenzyloxycarbonylaminohexanoyl)oxymethyl-4-oxa-1-azabicyclo[3.2.0]heptan-7-one]",1.18 µg/mL,,,0/6,,,39.1%,2/6,67.3%
